In ChEMBL document CHEMBL5512636, “Novel 6-hydroxybenzothiazol-2-carboxamides as potent and selective monoamine oxidase B inhibitors endowed with neuroprotective activity” (Eur J Med Chem, 2024):

What was measured:
[1] = biological target: T1, Amine oxidase [flavin-containing] B (Homo sapiens, UniProt P27338); assay: Inhibition of human MAO-B incubated for 30 mins by Amplex Red assay
T1 sequence (P27338 whole entry): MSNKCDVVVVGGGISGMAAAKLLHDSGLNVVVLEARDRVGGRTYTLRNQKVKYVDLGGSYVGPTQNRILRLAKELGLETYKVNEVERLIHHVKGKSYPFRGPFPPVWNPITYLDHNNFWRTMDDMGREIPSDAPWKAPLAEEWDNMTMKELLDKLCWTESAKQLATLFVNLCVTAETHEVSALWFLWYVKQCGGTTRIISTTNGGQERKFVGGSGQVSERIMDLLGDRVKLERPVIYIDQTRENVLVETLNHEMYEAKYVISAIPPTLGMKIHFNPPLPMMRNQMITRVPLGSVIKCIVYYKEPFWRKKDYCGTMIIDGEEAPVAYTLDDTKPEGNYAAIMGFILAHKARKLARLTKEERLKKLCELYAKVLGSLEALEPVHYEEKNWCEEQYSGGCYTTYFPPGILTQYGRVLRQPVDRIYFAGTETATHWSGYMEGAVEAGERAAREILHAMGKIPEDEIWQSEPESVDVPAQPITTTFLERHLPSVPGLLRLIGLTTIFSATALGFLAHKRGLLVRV

[2] = biological target: T2, Amine oxidase [flavin-containing] A (Homo sapiens, UniProt P21397); assay: Inhibition of recombinant human MAO-A expressed in baculovirus infected insect cells using kynuramine as substrate at 10 uM by fluorescence based method relative to control; conditions: Insect cell
T2 sequence (P21397 whole entry): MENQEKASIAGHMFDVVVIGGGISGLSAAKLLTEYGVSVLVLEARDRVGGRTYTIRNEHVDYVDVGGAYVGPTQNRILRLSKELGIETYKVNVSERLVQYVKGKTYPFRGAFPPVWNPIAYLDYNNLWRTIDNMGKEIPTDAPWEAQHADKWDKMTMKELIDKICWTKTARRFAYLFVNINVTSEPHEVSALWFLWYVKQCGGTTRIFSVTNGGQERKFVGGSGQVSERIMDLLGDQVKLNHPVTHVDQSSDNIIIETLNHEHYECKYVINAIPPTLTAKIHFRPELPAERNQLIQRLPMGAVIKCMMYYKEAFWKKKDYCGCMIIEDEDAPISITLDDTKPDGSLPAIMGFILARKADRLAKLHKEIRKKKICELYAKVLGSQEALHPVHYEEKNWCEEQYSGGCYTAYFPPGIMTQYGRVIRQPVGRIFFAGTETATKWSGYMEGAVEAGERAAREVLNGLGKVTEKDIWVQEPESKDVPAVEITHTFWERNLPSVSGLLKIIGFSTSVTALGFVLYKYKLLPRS

[3] = biological target: T1, Amine oxidase [flavin-containing] B; assay: Inhibition of recombinant human MAO-B expressed in baculovirus infected insect cells using kynuramine as substrate at 10 uM by fluorescence based method relative to control; conditions: Insect cell
[4] = biological target: T3, Amine oxidase [flavin-containing] B (Rattus norvegicus, UniProt P19643); assay: Inhibition of rat brain mitochondria MAO-B using benzylamine as substrate incubated for 30 mins by absorbance based assay
T3 sequence (P19643 whole entry): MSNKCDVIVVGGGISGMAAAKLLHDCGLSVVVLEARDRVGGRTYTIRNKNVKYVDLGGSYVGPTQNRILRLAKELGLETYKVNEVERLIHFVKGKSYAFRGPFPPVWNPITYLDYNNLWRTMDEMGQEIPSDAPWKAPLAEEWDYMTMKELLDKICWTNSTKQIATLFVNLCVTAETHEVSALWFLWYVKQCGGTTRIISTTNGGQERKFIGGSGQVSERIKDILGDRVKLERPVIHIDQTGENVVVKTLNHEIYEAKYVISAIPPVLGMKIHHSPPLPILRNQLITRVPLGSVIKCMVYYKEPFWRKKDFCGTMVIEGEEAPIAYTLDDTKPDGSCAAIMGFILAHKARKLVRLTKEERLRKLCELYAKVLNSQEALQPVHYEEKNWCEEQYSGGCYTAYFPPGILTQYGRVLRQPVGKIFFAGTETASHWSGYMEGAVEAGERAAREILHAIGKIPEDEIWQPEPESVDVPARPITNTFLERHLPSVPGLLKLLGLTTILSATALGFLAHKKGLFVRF

[5] = biological target: Microtubule-associated protein tau (Homo sapiens, UniProt P10636); assay: Inhibition of GFP/RFP-fused tau oligomerization in human SH-SY5Y cells incubated for 2 hrs by FRET assay; format: cell-based
Sequence of Microtubule-associated protein tau (P10636 whole entry, the tested form may be a part): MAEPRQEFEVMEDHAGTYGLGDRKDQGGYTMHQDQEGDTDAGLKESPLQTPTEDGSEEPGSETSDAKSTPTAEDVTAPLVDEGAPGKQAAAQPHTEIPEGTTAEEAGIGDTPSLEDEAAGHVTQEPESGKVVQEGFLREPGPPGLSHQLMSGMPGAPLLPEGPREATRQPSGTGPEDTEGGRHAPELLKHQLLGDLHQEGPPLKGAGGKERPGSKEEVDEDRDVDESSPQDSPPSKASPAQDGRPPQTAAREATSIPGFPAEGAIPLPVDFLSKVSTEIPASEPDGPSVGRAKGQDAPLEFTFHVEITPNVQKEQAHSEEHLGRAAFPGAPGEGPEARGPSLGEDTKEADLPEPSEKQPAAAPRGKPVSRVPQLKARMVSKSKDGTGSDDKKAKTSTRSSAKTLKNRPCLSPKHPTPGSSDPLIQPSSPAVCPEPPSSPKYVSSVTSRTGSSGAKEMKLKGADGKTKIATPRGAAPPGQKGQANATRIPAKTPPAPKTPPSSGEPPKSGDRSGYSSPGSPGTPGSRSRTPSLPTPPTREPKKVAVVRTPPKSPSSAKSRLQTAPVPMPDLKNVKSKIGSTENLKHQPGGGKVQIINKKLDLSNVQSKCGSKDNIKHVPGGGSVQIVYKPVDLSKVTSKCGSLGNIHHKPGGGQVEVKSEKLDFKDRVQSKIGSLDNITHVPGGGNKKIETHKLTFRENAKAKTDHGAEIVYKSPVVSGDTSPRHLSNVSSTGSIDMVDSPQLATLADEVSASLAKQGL

[6] = biological target: T2, Amine oxidase [flavin-containing] A; assay: biochemical
Description: Inhibition of recombinant human MAO-A expressed in baculovirus infected insect cells using kynuramine as substrate by fluorescence based method

[7] = biological target: T1, Amine oxidase [flavin-containing] B; assay: biochemical; format: cell-based, Insect cell
Description: Inhibition of recombinant human MAO-B expressed in baculovirus infected insect cells using kynuramine as substrate by fluorescence based method

[8] = Permeability of compound by PAMPA

Row | SMILES | inhibition at 10 µM [2] | further results
1 | COc1ccc2sc(SC(=O)N/N=C\c3csc([N+](=O)[O-])c3)nc2c1 | – | IC50 [1]: 0.06 µM
2 | COc1ccc(CNC(=O)c2nc3ccc(O)cc3s2)cc1 | 22% | inhibition at 10 µM [3]: 53%
3 | O=C(NCc1ccccc1F)c1nc2ccc(O)cc2s1 | 16% | –
4 | O=C(NCc1ccc(-c2ccccc2)cc1)c1nc2ccc(O)cc2s1 | 30% | –
5 | COc1ccc(CNC(=O)c2nc3ccc(O)cc3s2)cc1OC | 13% | –
6 | O=C(NCc1cccc(F)c1F)c1nc2ccc(O)cc2s1 | 19% | –
7 | O=C(c1nc2ccc(O)cc2s1)N1Cc2ccc(Cl)cc2C1 | 21% | –
8 | O=C(NCc1ccc(F)cc1F)c1nc2ccc(O)cc2s1 | 35% | –
9 | O=C(N/N=C(\c1ccccc1)c1ccc(Cl)cc1)Nc1nc2ccc([N+](=O)[O-])cc2s1 | – | IC50 [4]: 0.004 µM
10 | O=C(NCCc1cc2ccccc2[nH]1)c1nc2ccc(O)cc2s1 | 51% | EC50 [5]: 7.52 µM
11 | COc1ccccc1CNC(=O)c1nc2ccc(O)cc2s1 | 25% | –
12 | COc1ccc2nc(C(=O)NC3CCCCC3)sc2c1 | > 60% | IC50 [6]: 3.82 µM
13 | O=C(NCc1cccc(F)c1)c1nc2ccc(O)cc2s1 | 8% | –
14 | O=C(NCc1ccc([N+](=O)[O-])cc1)c1nc2ccc(O)cc2s1 | 15% | –
15 | O=C(NCc1cccs1)c1nc2ccc(O)cc2s1 | 33% | –
16 | O=C(NCc1ccc(-c2cccs2)cc1)c1nc2ccc(O)cc2s1 | 18% | inhibition at 10 µM [3]: 30%
17 | O=C(NC1CC1)c1nc2ccc(O)cc2s1 | 13% | inhibition at 10 µM [3]: 52%
18 | COc1ccc(CNC(=O)c2nc3ccc(O)cc3s2)c(OC)c1 | 26% | –
19 | O=C(NCc1cccc(Cl)c1)c1nc2ccc(O)cc2s1 | 28% | –
20 | Cc1cccc(CNC(=O)c2nc3ccc(O)cc3s2)c1 | 19% | –
21 | O=C(NCc1ccccc1)c1nc2ccc(O)cc2s1 | 18% | IC50 [7]: 0.552 µM
22 | O=C(NCc1ccc(Cl)cc1)c1nc2ccc(O)cc2s1 | 21% | –
23 | COc1cccc(CNC(=O)c2nc3ccc(O)cc3s2)c1OC | 11% | –
24 | COc1cccc(CNC(=O)c2nc3ccc(O)cc3s2)c1 | 18% | –

Row | SMILES | inhibition at 10 µM [2] | further results
25 | O=C(NCc1ccc(F)c(F)c1)c1nc2ccc(O)cc2s1 | 29% | –
26 | O=C(Nc1nc2ccc(O)cc2s1)C1CCCCC1 | > 80% | IC50 [6]: 1.92 µM
27 | O=C(NCc1cc(C(F)(F)F)cc(C(F)(F)F)c1)c1nc2ccc(O)cc2s1 | 26% | –
28 | CC(C)(C)c1ccc(CNC(=O)c2nc3ccc(O)cc3s2)cc1 | 19% | inhibition at 10 µM [3]: 44%
29 | COc1ccc(CNC(=O)c2nc3ccc(O)cc3s2)cc1F | 32% | –
30 | O=C(NC1CCCCC1)c1nc2ccccc2s1 | 26% | –
31 | O=C(NCc1cccnc1)c1nc2ccc(O)cc2s1 | 28% | inhibition at 10 µM [3]: 48%
32 | O=C(NCc1ccc(F)cc1)c1nc2ccc(O)cc2s1 | 52% | –
33 | O=C(c1nc2ccc(O)cc2s1)N1CCc2ccccc2C1 | 17% | –
34 | O=C(NC1CCCC1)c1nc2ccc(O)cc2s1 | 35% | –
35 | O=C(NCC#Cc1ccccc1)c1nc2ccc(O)cc2s1 | 59% | –
36 | O=C(NCc1ccco1)c1nc2ccc(O)cc2s1 | 10% | inhibition at 10 µM [3]: 41%
37 | O=C(NCCc1ccccc1)c1nc2ccc(O)cc2s1 | 36% | EC50 [5]: 10.5 µM
38 | O=C(NCC(c1ccccc1)c1ccccc1)c1nc2ccc(O)cc2s1 | 13% | inhibition at 10 µM [3]: 43%
39 | Cc1ccccc1CNC(=O)c1nc2ccc(O)cc2s1 | 15% | –
40 | O=C(NC1CCCCC1)c1nc2ccc(O)cc2s1 | 32% | –
41 | Cc1cc(C)cc(CNC(=O)c2nc3ccc(O)cc3s2)c1 | 26% | –
42 | CCCCCCNC(=O)c1nc2ccc(O)cc2s1 | 37% | –
43 | Cc1ccc(CNC(=O)c2nc3ccc(O)cc3s2)cc1 | 22% | –
44 | COc1cc(CNC(=O)c2nc3ccc(O)cc3s2)cc(OC)c1 | 43% | –
45 | O=C(NCc1ccccc1Cl)c1nc2ccc(O)cc2s1 | 24% | –
46 | O=C(c1nc2ccc(O)cc2s1)N1CCCCC1 | 16% | inhibition at 10 µM [3]: 31%
47 | O=C(NCC1CCCCC1)c1nc2ccc(O)cc2s1 | 32% | –
48 | CCn1cc(C(=O)O)c(=O)c2cc(F)c(N3CCNCC3)cc21 [NORFLOXACIN] | – | Papp [8]: 1.25 ×10⁻⁶ cm/s
